Assay results: paper PMC9598926, “Design and Synthesis of (Z)-5-(Substituted benzylidene)-3-cyclohexyl-2-thioxothiazolidin-4-one Analogues as Anti-Tyrosinase and Antioxidant Compounds: In Vitro and In Silico Insights” (Antioxidants, 2022)

What was measured:
[1] = test system: B16F10 murine melanoma cells; test: B16F10 cell viability (EZ-Cytox assay); assay type: cell-based
Method: 2.8. Viabilities of B16F10 Murine Melanoma Cells Treated with Analogues 2 or 3
The cytotoxic effects of analogs 2 and 3 were examined using B16F10 murine melanoma cells, as previously described. Cell viabilities were determined using the EZ-Cytox cell viability assay kit (Daeil Lab Service Co. Ltd., Seoul, Korea). Briefly, B16F10 cells (density 1 × 10^4 cells/well) were added to the wells of a 96-well microplate and cultured in a humidified 5% CO2 atmosphere at 37 °C for 24 h. Cells were then exposed to analogs 2 or 3 at 0, 1, 2, 5, 10, or 20 µM and incubated in a humidified 5% CO2 atmosphere for 24, 48, or 72 h at 37 °C. At these time points, cells were exposed to 10 µL of EZ-Cytox solution and incubated for 2 h at 37 °C. Optical densities of wells were then measured at 450 nm using a microplate reader (VersaMax®, Molecular Devices, Sunnyvale, CA, USA) to assess cell viability. Experiments were conducted independently 3 times.
Since analogs 2 and 3 had potent inhibitory effects on mushroom tyrosinase, they were subjected to B16F10 murine melanoma cytotoxicity assays. Initially, the cytotoxicities of 2 and 3 were investigated at concentrations of 0, 1, 2, 5, 10, and 20 µM using the EZ-Cytox cell viability assay (EZ-3000; DoGenBio, Seoul, Korea). Cell viability was measured after treatment for 24, 48, or 72 h (Figure 6).

[2] = ROS scavenging activity assay (DCFH-DA/esterase, SIN-1); details: SIN–1 10 µM; 5, 10, 20 µM
Method: 2.13. ROS Scavenging Activity Assay
The ROS scavenging activities of analogs 1–8 and Troloxwere determined as previously described by Ali et al. and Lebel and Bondy. Briefly, 2.5 mM DCFH-DA (2’,7’-dichlorodihydrofluorescein diacetate) (Molecular Probes, Eugene, OR, USA) solution was mixed with esterase (1.5 units/mL) in 50 mM phosphate buffer (pH 7.4), held for 30 min at 37 °C, and keep on ice in the dark until required. Tested compounds (10 µL; final concentrations: 5, 10, and 20 µM) dissolved in DMSO and SIN-1 (3-morpholinosydnonimine) (10 µM) and 180 µL of phosphate buffer in the wells of a black 96-well plate for 30 min. The 50 µL of DCFH-DA-esterase mixture (20 µM) was added. Fluorescence intensities of oxidized DCFH (DCF or 2′,7′-dichlorofluorescein) were measured using a microplate reader (Berthold Advances GmbH & Co., Bad Wildbad, Germany) with excitation and emission wavelengths of 485 and 530 nm, respectively. Trolox was used as the reference control.
Since it has been reported that reactive oxygen species (ROS) are concerned in the regulation of melanogenesis, we examined the ROS scavenging activities of analogs 1–8 using DCFH-DA (2′,7′-dichlorodihydrofluorescein diacetate) and esterase. Trolox and SIN–1 (3-morpholinosydnonimine) were used as the positive control and a ROS generator, respectively. Hydrolysis of DCFA-DA by esterase generates DCFH (2′,7′-dichlorodihydrofluorescein), which reacts with ROS generated by SIN–1 to produce the fluorescent compound DCF (2′,7′-dichlorofluorescein). Thus, ROS scavenging activities of analogs were assessed by measuring DCF fluorescence. […] Test samples including Trolox were treated at three different concentrations (5, 10, or 20 µM).

[3] = ABTS cation radical scavenging activity assay; details: test sample 100 µM, 2 min in the dark
Method: 2.12. ABTS Cation Radical Scavenging Activity Assay
The free radical scavenging activities of analogs 1–8 and Trolox were determined using an ABTS radical cation decolorization assay (SEJIN CI Co., Seoul, Korea), as previously described with minor modification. Trolox was used as the positive control. ABTS radicals were produced by adding 10 mL of 7 mM ABTS in distilled water to 10 mL of 2.45 mM aqueous potassium persulfate solution. The mixture was kept in the dark for 12–16 h at RT until the reaction was complete and absorbance had stabilized. The prepared free radical solution was then diluted with methyl alcohol so that the optical density at 734 nm was 0.70 ± 0.02. Test samples (10 µL, final concentration at 100 µM) dissolved in EtOH/DMSO (9:1 v/v) were added to the diluted free radical solution (90 µL) in a 96-well plate. After standing at RT for 2 min in the dark, well absorbances were measured at 734 nm, and ABTS radical scavenging activities were calculated using the following formula:ABTS free radical scavenging activity (%) = (Ac − As) × 100/Ac(2) where Ac indicates the absorbance of the non-treated control, and As indicates the absorbances of test samples. Experiments were conducted independently 3 times.
The ABTS (2,2′-azino-bis(3-ethylbenzothiazoline-6-sulfonic acid)) cation radical scavenging assay is also commonly used to evaluate antioxidant effects. ABTS is converted to the ABTS radical cation by the transfer of one electron to potassium persulfate. Trolox was used as the positive control, and assays were performed at a test sample (analogs 1–8 and Trolox) concentration of 100 µM. The ABTS radical solution obtained by a reaction of ABTS with potassium persulfate was mixed with test samples and left in the dark for 2 min. ABTS radical scavenging abilities were evaluated by measuring absorbances at 734 nm. […] On the other hand, analog 1 with a 4-hydroxyphenyl group, and analogs 7 and 8 with bromo substituents on the β-phenyl ring weakly scavenged the ABTS radical (16.6–24.8% scavenging). […] Furthermore, the results for ABTS and DPPH radical scavenging activities were similar.

## O=C1/C(=C/c2ccc(O)c(O)c2)SC(=S)N1C1CCCCC1 [Analog 2, (Z)-3-Cyclohexyl-5-(3,4-dihydroxybenzylidene)-2-thioxothiazolidin-4-one]
[1]; 1, 2, 5, 10, 20 µM, 24 h
  cytotoxicity in B16F10 cells, 24 h: cytotoxic at 20 µM
[1]; 1, 2, 5, 10, 20 µM, 48 h and 72 h
  cytotoxicity in B16F10 cells, 48 h and 72 h: cytotoxic at all concentrations
[2]
  ROS scavenging: significantly and concentration-dependently scavenged ROS
  ROS scavenging compared with Trolox: more potently than Trolox
[3]
  ABTS radical scavenging activity: 81.0%

## O=C1/C(=C/c2ccc(O)cc2O)SC(=S)N1C1CCCCC1 [Analog 3, (Z)-3-Cyclohexyl-5-(2,4-dihydroxybenzylidene)-2-thioxothiazolidin-4-one]
[1]; 1, 2, 5, 10, 20 µM, 24, 48, 72 h
  cytotoxicity in B16F10 cells, any concentration or time: not cytotoxic
[2]
  ROS scavenging: significantly and concentration-dependently scavenged ROS
  ROS scavenging compared with Trolox: more potently than Trolox
[3]
  ABTS radical scavenging activity: 72.1%
